Source: PubChem BioAssay (NCI)
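In this assay, cells in 96-well plates receive the compound at five concentrations for 48 hours. Endpoints are linearly interpolated between the surrounding concentrations. GI50 = concentration required for 50% inhibition of growth. The concentration for full growth arrest is given as TGI.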

Tests used:
Experiment in all cases: NCI anticancer screen, dose series, 48 h
786-0 renal = system: 786-0 renal
SR leukemia = system: SR leukemia
NCI-H226 lung = system: NCI-H226 lung
HT29 colon = system: HT29 colon
HL-60(TB) leukemia = system: HL-60(TB) leukemia
OVCAR-5 ovarian = system: OVCAR-5 ovarian
UACC-257 melanoma = system: UACC-257 melanoma
SF-539 CNS = system: SF-539 CNS
DMS 273 small cell lung = system: DMS 273 small cell lung
KM20L2 colon = system: KM20L2 colon

Compound	GI50 (786-0 renal) [µM]	TGI (786-0 renal) [µM]	GI50 (SR leukemia) [µM]	TGI (SR leukemia) [µM]	GI50 (NCI-H226 lung) [µM]	TGI (NCI-H226 lung) [µM]	GI50 (HT29 colon) [µM]	TGI (HT29 colon) [µM]	GI50 (HL-60(TB) leukemia) [µM]	TGI (HL-60(TB) leukemia) [µM]	GI50 (OVCAR-5 ovarian) [µM]	TGI (OVCAR-5 ovarian) [µM]	GI50 (UACC-257 melanoma) [µM]	TGI (UACC-257 melanoma) [µM]	GI50 (SF-539 CNS) [µM]	TGI (SF-539 CNS) [µM]	TGI (DMS 273 small cell lung) [µM]	TGI (KM20L2 colon) [µM]
CCCN(CCC)C(=O)C1=Cc2ccc(-c3ccc(C(=O)N4CCCC4)cc3)cc2N=C(N)C1	14.7	42.3	4.21	18.3	12.1	62	4.28	28.6	3.46	15.6	20.1	64.9	9.03	22.3	11.7	27		
COc1cccc(C2c3cc4c(cc3OC(C)(O)C2C)OCO4)c1O (configuration not stated)		68.5		> 42.1		18.7		17.4		28		> 100		47.1		8.65		
C=C1C(=O)O[C@@H]2C[C@@]3(C)CCC[C@H](C)C3=C[C@H]12		12.7		4.78		29.5		16.1		5.52		31.4		20.1		22.5		
COc1ccc(CCN2C(=O)C=CC2=O)cc1OC		8.15		6.7		13		13.7		21.5		35.6		30.9		31.3		
CC(C)=CCC[C@H](C)[C@@H]1CC[C@]2(C)C3CC[C@]4(OC4(C)C)C(CCCO)[C@]3(C)CC[C@@]12C (some centres not stated)	22.4	48.5	11.2	28.1	10	57.4	34	> 100	20.7	45.3	21	47.1	24.1	59.9	23.6	50.1		
Cn1cc(-c2nc(-c3c[nH]c4ncccc34)cs2)c2cc(F)ccc21	2.82	7.64	2.44	7.8	4.63	25.9	2.1	4.53	3.21	15.6	1.25	6.63	2.72	12.3	3.8	15.3		
Cn1cncc1[C@@](N)(c1ccc(Cl)cc1)c1ccc2c(c1)c(-c1cccc(Cl)c1)cc(=O)n2C	3.08	14	0.165	4.32	5.98	21.5	1.27	6.24	1.29	4.62	5.59	19.3	1.37	12.4	2.81	9.47		
Cn1ccnc1C(=O)/C=C/c1ccc(C(=O)Nc2ccc(Cl)cc2)cc1	0.761	1.82	0.255	1.56	3.11	18	0.946	> 33.3	0.669	1.97	1.1	5.64	2.48	> 33.3	0.626	1.42		
O=C1CC(c2ccc(N3CCOCC3)cc2)(c2ccsc2)NC(=O)C1Sc1ccccc1Cl (configuration not stated)	6.53	> 100	4.4	> 100	> 100	> 100	46.4	> 100	> 100	> 100	> 100	> 100	> 100	> 100	56.4	> 100		
Oc1ccc2cc(Br)ccc2c1-c1c(O)ccc2cc(Br)ccc12	2.38	4.64	2.52	7.43	2.66	8.9	1.75	3.34	2.87	8.6	4.23	15.6	10.1	22.6	3.34	12		
COc1cc(NS(C)(=O)=O)ccc1Nc1c2ccc(Cl)cc2nc2c(OC)cccc12	0.0526	0.689	< 0.0109	10.2	0.0806	0.83	0.142	1.85	0.0313	1.3	1.59	23.3	0.698	4.07	0.059	0.681		
Cn1nccc1Nc1nccc(-c2cc3c(s2)C(C)(C)N(CCN2CCOCC2)C3=O)n1	14.7	> 100	23	> 100	20.2	> 100	0.277	> 100	0.499	78	0.498	> 100	0.301	> 100	27.9	> 100		
CC[C@@H](C(=O)[C@@H](C)[C@@H](O)[C@H](C)[C@@H]1O[C@@H]([C@@H](CC)C(=O)O)CC[C@@H]1C)C1O[C@]2(C=CC(=O)[C@]3(CC[C@@](C)([C@H]4CC[C@](O)(CC)[C@H](C)O4)O3)O2)[C@H](C)C[C@@H]1C (some centres not stated)	0.987	14.5	0.0969		1.06	9.77	0.279	16.2	0.0399	0.332	0.734	21.5	0.169	16.7	0.334	10.4		
O=C1NN(c2ccc(C(=O)O)cc2)C(=O)/C1=C\c1ccc([N+](=O)[O-])o1	> 100	> 100	32.9	> 100	> 100	> 100	18.6	35.8	34.5	91.7	> 100	> 100	> 100	> 100	> 100	> 100		
C/C(=C\C(C)COCc1ccccc1)[C@H](COCc1ccccc1)OCc1ccccc1 (some centres not stated)		> 100				> 100		> 100				> 100				> 100	> 100	> 100
c1ccc(Cn2cc3c(c2-c2ccccc2)CCc2cnoc2-3)cc1	6.7	69.1	1.96	9.28	14.7	> 100	3.11	33.4	1.75	4.09	33	> 100	17.7	> 100	5.34	38.9		
